Columns and labels:
leukemia SR cells [1] = experiment: Apoptosis, Annexin-V-FITC/PI
leukemia SR cells [2] = experiment: Cell cycle analysis, PI flow cytometry; type: cell-based, human; set-up: increase of cells at pre-G1 phase vs control: concentration or dose not given beside the values
Experimental: The cells were washed twice using Ice-cold phosphate buffer saline (PBS). • Centrifugation was used to collect the cells, then the cells were fixed in 70% (v/v) ethanol, washed with PBS and re-suspended with 0.10 mg/mL RNase. • After that, cells were stained with […] propidium iodide (PI) and evaluated by flow cytometry using FACSCalibur (Becton Dickinson).

Question: CCn1cc(C(=O)NN=Cc2cccs2)c(=O)c2cc(F)c(N3CCNC(C)C3)c(F)c21 (stereo not shown) [Compound 3e, 1-Ethyl-6,8-difluoro-7-(3-methylpiperazin-1-yl)-4-oxo-N'-(thiophen-2-ylmethylene)-1,4-dihydroquinoline-3-carbohydrazide] was tested. Which “late apoptosis elevation vs control” value (leukemia SR cells [1]) did it give?
Answer: Its value is 27.16 folds.

Question: And the “Apoptosis %Early” value (leukemia SR cells [1]; 3e at 1.90 µM, 24 h)?
Answer: The value was 5.27%.

Question: And the “Apoptosis %Late” value (leukemia SR cells [1]; 3e at 1.90 µM, 24 h)?
Answer: Its value is 18.20%.

Question: What about the “Apoptosis %Total” value (leukemia SR cells [1]; 3e at 1.90 µM, 24 h) of the same molecule?
Answer: The value was 26.19%.

Question: And the Necrosis (leukemia SR cells [1]; 3e at 1.90 µM, 24 h)?
Answer: Its Necrosis is 2.72%.

Question: And the “increase of cells at pre-G1 phase vs control” value (leukemia SR cells [2])?
Answer: Its value is 10.19 folds.

Question: What about the “%G0-G1” value (leukemia SR cells [2]; 3e at 1.90 µM, 24 h) of the same molecule?
Answer: The value was 24.66%.

Question: And the “%G2-M” value (leukemia SR cells [2]; 3e at 1.90 µM, 24 h)?
Answer: The value was 49.26%.

Question: And the “%Pre-G1” value (leukemia SR cells [2]; 3e at 1.90 µM, 24 h)?
Answer: Its value is 26.19%.

Question: And the “%S” value (leukemia SR cells [2]; 3e at 1.90 µM, 24 h)?
Answer: The value was 26.08%.
